The source of these data is patent publication US9315531B2, “Titanocene-gold derivatives comprising thiolato ligands” (Research Foundation of the City University of New York, priority 2014, dated 2016).

The subject of data set [1] is p90-RSK. Nature of the data set: Protein kinase expression in Caki-1 whole cell lysates, p90-RSK. Type of data set: cell-based, human. Conditions: Caki-1, 5 μM, by 12 hours post-treatment. The method, then:
Whole cell lysates of Caki-1 cells treated with compounds 2 or 6 were also evaluated for their effects on the expression levels of selected protein kinases, namely p90-RSK, AKT and MAPKAPK3. […] Because all three enzymes have been implicated in promoting cell migration and therefore are strong targets for anti-metastasis drugs, these findings predict that compound 2 would be effective in controlling metastatic potential of renal tumors.
Cell lysis and immunoblotting: Caki-1 cells were seeded into 10-cm dishes at a density of 2.2×10^6 and incubated for 24 hours. […]
The protein concentration was determined with BCA protein dye reagent (Pierce, Fisher Scientific Pittsburgh, Pa.). Samples were denatured with 5×SDS sample buffer (0.25% bromophenol blue, 0.5 M dithiothreitol (DTT), 50% glycerol 50% (v/v), 10% sodium dodecyl sulfate (SDS) followed by heating at 95° C. for 5 minutes. Proteins were separated by SDS-PAGE, transferred to a PVDF membrane (Millipore Corp.), and probed with MAPKAPK-3 antibody (Cell Signaling Technology, Danvers, Mass., USA), as well as β-actin antibody (Cell Signaling Technology, Danvers, Mass., USA). Immunoreactive bands of primary antibodies were detected using HRP goat anti-rabbit and secondary antibodies were detected with peroxidase-conjugated secondary antibody and detected by chemiluminescence (Pierce Biotechnology, Rockford, Ill.).

The subject of data set [2] is MAPKAPK3. Nature of the data set: Protein kinase expression in Caki-1 whole cell lysates (Western blot), MAPKAPK3. The settings on record: Caki-1, by 12 hours post-treatment. Type of data set: cell-based, human. A general note: In western blotting, separated proteins are transferred to a membrane and probed.
Protocol: The Caki-1 cells were then lysed and a Western blot analysis was performed with anti-MAPKAPK-3 antibody. Blots were probed with anti-β-Actin antibody as a control for protein loading.
Cell lysis and immunoblotting: Caki-1 cells were seeded into 10-cm dishes at a density of 2.2×10^6 and incubated for 24 hours. […] After microcentrifuging for 5 minutes at 4° C., pellets were treated with ice-cold lysis buffer with cell extraction buffer (BioSource, Camarillo, Calif.) containing 0.1% protease inhibitors and 1% phosphatase inhibitors cocktail (Fisher Scientific, Pittsburgh, Pa.) for 10 minutes, then sonicated for 10 seconds three times, and placed on ice. The lysed cells were centrifuged at 10,000×g at 4° C. for 10 minutes to remove the pellets representing the insoluble cell fraction.
The protein concentration was determined with BCA protein dye reagent (Pierce, Fisher Scientific Pittsburgh, Pa.). […]
In data set [3] the test system is Caki-1 renal carcinoma. Nature of the data set: Caki-1 xenografts in mice, tumor growth. On the procedure:
Study of the effects of 2 in Caki-1 xenografts in mice: twelve female NOD.CB17-Prkdc scid/J (non-obese diabetic—severe combined immunodeficiency) from Jackson Laboratory (Bar Harbor, Me. and Sacramento, Calif., USA) were used for the xenograft experiment (ages 8 to 12 weeks and weighing 19-22 g) were used. Each mouse received 8×10^6 tumor cells subcutaneously without anesthesia. Exponentially growing Caki-1 human kidney cancer cells were suspended in 1:1 ratio 50 μl phosphate-buffered saline (PBS; pH 7.4) plus 50 μl of matrigel (BD Biosciences, San Jose, Calif., USA) were injected subcutaneously on both left and right flank of each mice. The diameter of the tumors was measured once weekly using an electronic digital caliper and the tumor volume (TV) was calculated according to the empirical equation TV=(a)(b^2)×π/6 where a=longest dimension; b=largest dimension orthogonal to a. The median volumes of each group were normalized to the initial tumor volume resulting in the relative tumor volume. […] Treatment started when tumors were palpable (about 6 mm diameter). Mice were randomized to treatment groups based on their starting tumor burden at twelve weeks of age to ensure equivalent distribution between the three groups. At trial end-point the mice were sacrificed and tumors measured again after excision and then processed for further analysis. Histological as well as biochemical evaluations of blood, liver, spleen, and kidney, were conducted.

The test system of data set [4] is Caki-1 cells. Nature of the data set: Annexin V/PI apoptosis assay. It counts as cell-based, human. Conditions: Caki-1, 6 hours incubation, 10 μM. On the procedure: To gain insight concerning the type of cell death that is induced in cancer cell lines, apoptosis assays were performed with Caki-1 cells with compound 2 dissolved in 1% DMSO solution in media. A 1% solution in media (FIG. 7) and staurosporine (FIG. 8) were used as controls. In early stages of apoptosis, one of the significant biochemical features is loss of plasma membrane phospholipid asymmetry due to translocation of phosphatidylserine (PS) from cytoplasmic to extracellular side. This characteristic allows detection of externalized PS by the specific binding of Annexin V (FITC-conjugated). Initiation of cell death will eventually result in the permeabilization of the cell membrane, allowing Pi to stain DNA within the nucleus. […] After incubation during 6 hours with 10 μM of compound 2 necrosis can be clearly proposed.
Annexin V/PI assay: Confluent Caki-1 cells were treated with either […], 0.1% DMSO or 5 μM of staurosporine for 6 h. […] Stained cells were analyzed by flow cytometry using Accuri C6 software (BD Biosciences, San Jose, Calif., USA).

Data set [5] has as its system thioredoxin reductase.
Protocol: After 5, 12 or 24 hours of treatment incubation cells were washed three times in PBS, and lysed by douncing using scrapers and sheer force though syringe with a 34 gauge needle in assay buffer (Abeam Thioredoxin Reductase Assay kit, ab83463) added to 1 mM protease inhibitor cocktail (Abeam, ab65621). The lysates were centrifuged at 10,000×g for 15 minutes at 4° C. to isolate insoluble material. The total protein concentrations of soluble lysates were measured using the BCA Protein Assay (Life Technologies). The soluble lysates were incubated for 20 minutes in assay buffer with a proprietary thioredoxin reductase specific inhibitor before adding a specific substrate, DTNB (5, 5′-dithiobis(2-nitrobenzoic) acid), and measuring activity at 1 minute intervals for 30 minutes using the BioTek fluorescence microplate reader (BioTek U.S., Winooski, Vt.) set at =412 nm. Lysates were tested in duplicate. TrxR activity was calculated based on the linear amount of TNB produced per minute per mg of total protein and corrected for background activity from enzymes other than TrxR in the lysates.
Data set [6] relates to Caki-1 cells. It counts as cell-based, human. The settings on record: Caki-1, 5 μM.
Protocol: Anti-invasive properties were evaluated by using a wound-healing scratch assay.
Cell migration: For wound healing assays, Caki-1 cells were seeded in 6 cm dishes at a density of 0.8×10^6 in complete media, then grown to confluence for twenty-four hours at 37° C. (5% CO2), then cross-shape wounds/scratches were performed in the monolayer using a sterile 10 μl pipette tip. […] To quantify cell migration, the area of the initial wound (T0) is compared with the area of the healing wound at three time points after the scratch is introduced. Percent Migration=[area of original wound−area of wound during healing]/Area of original wound]×100.

With “[(η-C5H5)2TiMe(μ-mba)Au(PPh3)] [Compound 2]”, in data set [1], the “expression of p90-RSK” value was “dramatic decreases in expression”. For the same substance, the “expression of MAPKAPK3” value in data set [2] is listed as “dramatic decreases in expression”. Moreover, in data set [3] (between day 1 and day 28 of treatment, total of 14 doses), the “decrease in tumor size (shrinkage) from the starting volume” value was determined as 67%. Moreover, the “Primary Tumor” value in data set [3] (tumor measured on day 28, after 14th dose, every other day dosing (compound 6 […], compound 2 3 mg/kg)) came out at 41.33 ± 13.00 mm^3. Besides, the “weight loss in treated mice” value in data set [3] (xenograft protocol, 14 doses every other day) is given as “no weight loss”. Besides, the “type of cell death induced” value in data set [4] was “necrosis”. Besides, the “inhibition of thioredoxin reductase activity” value in data set [5] (Caki-1 cells, 5 μM, five hour incubation) was 31.6%. Also, the IC50 in data set [5] (read-out: IC50 thioredoxin reductase in Caki-1 cells, after twelve hours) is 880 nM. Also, the inhibition of migration result in data set [6] is reported as “complete inhibition of migration”.

The IC50 is the concentration that gives 50% inhibition.
